Values quoted from earlier work as cited in patent US7456023B2, “Reagent for luminescence optical determination of an analyte” (Roche Diagnostics Operations, Inc., priority 2000, dated 2008).

Legend:
[1] = for Absorption wavelength, deprotonated: deprotonated form; for Absorption wavelength, protonated: protonated form

| Molecule | Absorption wavelength, deprotonated [1] | Absorption wavelength, protonated [1] | pKa |
| --- | --- | --- | --- |
| O=S1(=O)OC(c2cc(Br)c(O)c(Br)c2)(c2cc(Br)c(O)c(Br)c2)c2ccccc21 [Bromophenol blue] | 617 nm | 430 nm |  |
| Cc1c(C2(c3cc(C(C)C)c(O)c(Br)c3C)OS(=O)(=O)c3ccccc32)cc(C(C)C)c(O)c1Br [Bromothymol blue] | 615-618 nm | 430-435 nm |  |
| Cc1ccc(O)c(N=Nc2c(O)cc(S(=O)(=O)O)c3ccccc23)c1 [Calmagit] | 605 nm | 530 nm |  |
| O=C1OC(c2ccc(O)c3ccccc23)(c2ccc(O)c3ccccc23)c2ccccc21 [Naphthol-phthalein] | 661 nm | 428 nm |  |
| O=C1C=CC(=Nc2ccc(O)cc2)C=C1Cl [o-chlorophenol-indophenol] | 625 nm | 555 nm |  |
| Dibromoxylenol blue | 614 nm | 420 nm |  |
| Nitrazine yellow | 590 nm | 460 nm | 6.5 |
